Laboratory results from US20240246964A1 (Arbutus Biopharma Corporation, priority 2021, published 2024).

molecular target: human PD-L1 (Homo sapiens (Human), UniProt Q9NZQ7); experiment: T cell activation luciferase reporter cell culture system (T Cell Activation Assay); assay type: cell-based; settings: luciferase reporter assay; PD-L1 aAPC/CHO-K1 cells with PD-1 effector Jurkat T cells
Sequence (Q9NZQ7 19-290): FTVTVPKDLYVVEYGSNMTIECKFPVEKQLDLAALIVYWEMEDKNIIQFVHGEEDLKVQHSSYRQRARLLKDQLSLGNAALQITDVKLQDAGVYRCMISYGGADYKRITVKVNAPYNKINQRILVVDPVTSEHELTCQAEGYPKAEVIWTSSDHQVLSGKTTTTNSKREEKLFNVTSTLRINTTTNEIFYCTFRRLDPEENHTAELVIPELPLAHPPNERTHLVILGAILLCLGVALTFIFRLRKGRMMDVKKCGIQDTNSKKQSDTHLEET

First: COc1cc(-c2ncnc(-c3cccc(-c4ccc(CN5CC6(CNC(=O)C6)C5)c(OC)n4)c3Cl)c2OC)ccc1CN1CC2(CNC(=O)C2)C1 [Example 727, 2-((6-(2-Chloro-3-(5-methoxy-6-(3-methoxy-4-((7-oxo-2,6-diazaspiro[3.4]octan-2-yl)methyl)phenyl)pyrimidin-4-yl)phenyl)-2-methoxypyridin-3-yl)methyl)-2,6-diazaspiro[3.4]octan-7-one]
Second: COc1cc(-c2nccc(-c3cccc(-c4ccc(CN5CC6(CNC(=O)C6)C5)c(OC)n4)c3Cl)c2Cl)ccc1CN[C@H]1CC[C@H](O)CC1 [Example 502, 2-((6-(2-Chloro-3-(3-chloro-2-(4-((((1r,4r)-4-hydroxycyclohexyl)-amino)-methyl)-3-methoxyphenyl)pyridin-4-yl)phenyl)-2-methoxypyridin-3-yl)methyl)-2,6-diazaspiro[3.4]octan-7-one]
The EC50 of the first is higher: at least 10000 nM for the first, 28.9 nM for the second. The second is the more potent here.

First: COC(=O)CCN1CCc2cc(-c3nccc(-c4cccc(-c5ccc(CNC[C@H](C)O)c(OC)n5)c4Cl)c3Cl)cc(OC)c2C1 [Example 272, Methyl (S)-3-(6-(3-chloro-4-(2-chloro-3-(5-(((2-hydroxypropyl)amino)methyl)-6-methoxypyridin-2-yl)phenyl)pyridin-2-yl)-8-methoxy-3,4-dihydroisoquinolin-2(1H)-yl)propanoate]
Second: COc1cc(-c2nccc(-c3cccc(-c4ccc(CNC[C@@H]5CCC(=O)N5)c(OC)n4)c3Cl)c2Cl)cc2c1CN(C[C@H](C)O)CC2 [Cmpd 50, (S)-5-((((6-(2-chloro-3-(3-chloro-2-(2-((S)-2-hydroxypropyl)-8-methoxy-1,2,3,4-tetrahydroisoquinolin-6-yl)pyridin-4-yl)phenyl)-2-methoxypyridin-3-yl)methyl)amino)methyl)pyrrolidin-2-one]
The EC50 of the first is 3-fold higher: 88.2 nM for the first, 29.1 nM for the second. The second is the more potent here.

Compared with `COc1cc(-c2nccc(-c3cccc(-c4ccc(CNC[C@@H]5CCC(=O)N5)c(OC)n4)c3Cl)c2Cl)cc(F)c1CNCC(C)C` [Cmpd 83, (S)-5-((((6-(2-chloro-3-(3-chloro-2-(3-fluoro-4-((isobutylamino)methyl)-5-methoxyphenyl)pyridin-4-yl)phenyl)-2-methoxypyridin-3-yl)methyl)amino)methyl)pyrrolidin-2-one], `COc1nc(-c2cccc(-c3ccnc(-c4cc(OC)c5nc(CN[C@H]6C[C@](C)(O)C6)nn5c4)c3Cl)c2Cl)ccc1CNC[C@@H]1CCC(=O)N1` [Example 370, (S)-5-((((6-(2-Chloro-3-(3-chloro-2-(2-((((1r,3r)-3-hydroxy-3-methylcyclobutyl)amino)methyl)-8-methoxy-[1,2,4]triazolo[1,5-a]pyridin-6-yl)pyridin-4-yl)phenyl)-2-methoxypyridin-3-yl)methyl)amino)methyl)pyrrolidin-2-one] is 1.6-fold lower in EC50: 66.2 nM for the first, 41.2 nM for the second. The second is the more potent here.

Going from `COc1nc(-c2cccc(-c3ccnc(-c4ccc(CNC5CCOCC5)c(OC(F)F)c4)c3Cl)c2Cl)ccc1CNC1CCOCC1` [Example 618, N-((6-(2-Chloro-3-(3-chloro-2-(3-(difluoromethoxy)-4-(((tetrahydro-2H-pyran-4-yl)amino)methyl)phenyl)pyridin-4-yl)phenyl)-2-methoxypyridin-3-yl)methyl)tetrahydro-2H-pyran-4-amine] to `COc1nc(-c2cccc(-c3ccnc(-c4ccc(CNC5CCN(C(C)=O)CC5)c(OC(F)F)c4)c3Cl)c2Cl)ccc1CNC1CCN(C(C)=O)CC1` [Example 394, 1-(4-(((6-(3-(2-(4-(((1-Acetylpiperidin-4-yl)amino)methyl)-3-(difluoromethoxy)phenyl)-3-chloropyridin-4-yl)-2-chlorophenyl)-2-methoxypyridin-3-yl)methyl)amino)piperidin-1-yl)ethan-1-one], the EC50 falls from 57.7 nM to 22.2 nM (2.6-fold). The second is the more potent here.

`COCCC(=O)N1CCC(NCc2ccc(-c3cccc(-c4ccnc(-c5ccc(CNC[C@H](C)O)c(OC)c5)c4Cl)c3Cl)nc2OC)CC1` [Example 632, (S)-1-(4-(((6-(2-Chloro-3-(3-chloro-2-(4-(((2-hydroxypropyl)amino)methyl)-3-methoxyphenyl)pyridin-4-yl)phenyl)-2-methoxypyridin-3-yl)methyl)amino)piperidin-1-yl)-3-methoxypropan-1-one] and `COc1cc(-c2nccc(-c3cccc(-c4ccc(CNC5CCN(C(C)=O)CC5)c(OC)n4)c3Cl)c2Cl)ccc1CNCCN1CCNC(=O)C1` [Example 479, 4-(2-((4-(4-(3-(5-(((1-Acetylpiperidin-4-yl)amino)methyl)-6-methoxypyridin-2-yl)-2-chlorophenyl)-3-chloropyridin-2-yl)-2-methoxybenzyl)amino)ethyl)piperazin-2-one] are within 1.5-fold of each other in EC50: 41.2 nM for the first, 59.3 nM for the second.

`COc1cc(-c2nccc(-c3cccc(-c4ccc(CN5CC6(CCN(CCO)C6)C5)c(OC)n4)c3Cl)c2Cl)ccc1CN1CC2(CCN(CCO)C2)C1` [Example 670, 2-(2-((6-(2-Chloro-3-(3-chloro-2-(4-((6-(2-hydroxyethyl)-2,6-diazaspiro [3.4]octan-2-yl)methyl)-3-methoxyphenyl)pyridin-4-yl)phenyl)-2-methoxypyridin-3-yl)methyl)-2,6-diazaspiro[3.4]octan-6-yl)ethan-1-ol] and `COc1cc(-c2nccc(-c3cccc(-c4ccc(CN5CC6(C5)CN(C(=O)CO)C6)c(OC)n4)c3Cl)c2Cl)ccc1CN1CC2(C1)CN(C(=O)CO)C2` [Example 667, 1-(6-((6-(2-Chloro-3-(3-chloro-2-(4-((6-(2-hydroxyacetyl)-2,6-diazaspiro[3.3]heptan-2-yl)methyl)-3-methoxyphenyl)pyridin-4-yl)phenyl)-2-methoxypyridin-3-yl)methyl)-2,6-diazaspiro[3.3]heptan-2-yl)-2-hydroxyethan-1-one] are within 1.5-fold of each other in EC50: 62.2 nM for the first, 66.1 nM for the second.

Going from `COc1cc(-c2nccc(-c3cccc(-c4ccc(CN5CC6(CCN(C(C)=O)CC6)C5)c(OC)n4)c3Cl)c2Cl)ccc1CN1CC2(CCN(C(C)=O)CC2)C1` [Example 485, 1-(2-((6-(3-(2-(4-((7-Acetyl-2,7-diazaspiro[3.5]nonan-2-yl)methyl)-3-methoxyphenyl)-3-chloropyridin-4-yl)-2-chlorophenyl)-2-methoxypyridin-3-yl)methyl)-2,7-diazaspiro[3.5]nonan-7-yl)ethan-1-one] to `COc1cc(-c2nccc(-c3cccc(-c4ccc(CN5CCNC(=O)C5)c(OC)n4)c3Cl)c2Cl)ccc1CN1CCNC(=O)C1` [Example 457, 4-((6-(2-Chloro-3-(3-chloro-2-(3-methoxy-4-((3-oxopiperazin-1-yl)methyl)phenyl)pyridin-4-yl)phenyl)-2-methoxypyridin-3-yl)methyl)piperazin-2-one], the EC50 rises from 212 nM to at least 10000 nM.

Compared with `COc1cc(-c2nccc(-c3cccc(-c4ccc(CN[C@H]5CC[C@@H](OC)CC5)c(OC)n4)c3Cl)c2Cl)ccc1CN[C@H]1CC[C@@H](OC)CC1` [Example 448, (1s,4s)-N-((6-(2-Chloro-3-(3-chloro-2-(3-methoxy-4-((((1s,4s)-4-methoxycyclohexyl)amino)methyl)phenyl)pyridin-4-yl)phenyl)-2-methoxypyridin-3-yl)methyl)-4-methoxycyclohexan-1-amine], `COc1cc(-c2nccc(-c3cccc(-c4ccc(CNC5CC6(COC6)C5)c(OC)n4)c3Cl)c2Cl)cc2c1CN(CCCF)CC2` [Example 251, N-((6-(2-Chloro-3-(3-chloro-2-(2-(3-fluoropropyl)-8-methoxy-1,2,3,4-tetrahydroisoquinolin-6-yl)pyridin-4-yl)phenyl)-2-methoxypyridin-3-yl)methyl)-2-oxaspiro[3.3]heptan-6-amine] is 1.5-fold higher in EC50: 76.3 nM for the first, 117 nM for the second.

Compared with `COc1nc(O[C@H]2CCc3c(-c4nccc(-c5ccc6c(CNC[C@@H]7CCC(=O)N7)cn(C)c6n5)c4Cl)cccc32)c(C(F)(F)F)cc1CNC[C@@H]1CCC(=O)N1` [Example 545, (S)-5-((((6-(3-Chloro-2-((S)-1-((6-methoxy-5-(((((S)-5-oxopyrrolidin-2-yl)methyl)amino)methyl)-3-(trifluoromethyl)pyridin-2-yl)oxy)-2,3-dihydro-1H-inden-4-yl)pyridin-4-yl)-1-methyl-1H-pyrrolo[2,3-b]pyridin-3-yl)methyl)amino)methyl)pyrrolidin-2-one], `COc1nc(N[C@H]2CCc3c(-c4nccc(-c5ccc6c(CNC[C@@H]7CCC(=O)N7)cn(C)c6n5)c4Cl)cccc32)c(C(F)(F)F)nc1CNC[C@@H]1CCC(=O)N1` [Example 532, (S)-5-((((6-(3-Chloro-2-((S)-1-((6-methoxy-5-(((((S)-5-oxopyrrolidin-2-yl)methyl)amino)methyl)-3-(trifluoromethyl)pyrazin-2-yl)amino)-2,3-dihydro-1H-inden-4-yl)pyridin-4-yl)-1-methyl-1H-pyrrolo[2,3-b]pyridin-3-yl)methyl)amino)methyl)pyrrolidin-2-one] is 6.7-fold higher in EC50: 21.3 nM for the first, 143 nM for the second. The first is the more potent here.

Going from `COc1nc(-c2ccnc(-c3cccc(NC(=O)c4cn(C)c(=O)n(C)c4=O)c3Cl)c2Cl)ccc1CNC[C@@H]1CCC(=O)N1` [Compound 718, (S)—N-(2-Chloro-3-(3′-chloro-6-methoxy-5-((((5-oxopyrrolidin-2-yl)methyl)amino)methyl)-[2,4′-bipyridin]-2′-yl)phenyl)-1,3-dimethyl-2,4-dioxo-1,2,3,4-tetrahydropyrimidine-5-carboxamide] to `COc1nc(-c2cncc(-c3cccc(NC(=O)c4cn(C)c(=O)n(C)c4=O)c3Cl)c2Cl)ccc1CN1CC2(CNC(=O)C2)C1` [Compound 722, N-(2-Chloro-3-(4′-chloro-6-methoxy-5-((7-oxo-2,6-diazaspiro[3.4]octan-2-yl)methyl)-[2,3′-bipyridin]-5′-yl)phenyl)-1,3-dimethyl-2,4-dioxo-1,2,3,4-tetrahydropyrimidine-5-carboxamide], the EC50 rises from 81.5 nM to 818 nM (10-fold).

`COc1cc(-c2nccc(-c3cccc(-c4ccn5c(=O)c(CNC[C@@H]6CCC(=O)N6)cnc5c4)c3Cl)c2Cl)ccc1CNC[C@@H]1CCC(=O)N1` [Cmpd 1, 8-(2-chloro-3-(3-chloro-2-(3-methoxy-4-(((((S)-5-oxopyrrolidin-2-yl)methyl)amino)methyl)phenyl)pyridin-4-yl)phenyl)-3-(((((S)-5-oxopyrrolidin-2-yl)methyl)amino)methyl)-4H-pyrido[1,2-a]pyrimidin-4-one] was tested, and the EC50 was 300 nM.
